Experimental data: US7998932B2, “Inhibition of angiogenesis by neutrophil alpha-defensins” (The Trustees of the University of Pennsylvania, priority 2003, dated 2011)

Test system: HUVEC
Experiment: HUVEC proliferation by BrdU incorporation
Type: cell-based, human
Details: over a period of 24 hours; 10 ng/ml VEGF or 1 μM sphingosine-1-phosphate
Description: Cell proliferation: Endothelial cell proliferation was determined by measuring the incorporation of bromodeoxyuridine (BrdU). Endothelial cells were plated onto 96-well plates and incubated for 12 hours after which the medium was changed to MCDB-131 containing 0.05% FCS. Cells were then incubated for 24 hours in the absence or presence of stimuli or competitors. BrdU was added to the medium during the last 6 hours of incubation. The cells were then fixed and cell proliferation was quantified with a standardized calorimetric immunoassay (Roche Diagnostics, Mannheim, Germany) according to the manufacturer's instructions.

Molecule	increase of DNA synthesis in HUVEC
CCCCCCCCCCCCC/C=C/[C@@H](O)[C@@H](N)COP(=O)(O)O [sphingosine-1-phosphate]	approximately two-fold
VEGF	approximately two-fold
